Here are results for 1 compound from patent publication US7341988B2, “Method of treating influenza with geranyl-geranyl acetone” (Eisai R&D Management Co., Ltd., priority 2001, dated 2008).

One assay concerns M×A genes. As to the kind of experiment: Expression of antiviral gene MxA in PR8-infected A549 cells, northern blot. The format is cell-based, human. From the text: Studied next were the effects of GGA treatment on the expression of antiviral genes after infection by PR8, and the results are indicated in FIGS. 12 and 13. […] It should be noted that the GAPDH in FIG. 12 was used as a control in the same way as previously described in FIG. 5.

Assay [1] relates to interferon-inducible double-stranded RNA activated protein kinase (PKR). As to the kind of experiment: PKR mRNA expression in A549 cells, RT-PCR. The format is cell-based, human. The settings on record: β-actin control. The text has this:
FIG. 13 indicates the results of using RT-PCR to assay the mRNA expression of interferon-inducible double-stranded RNA activated protein kinase (hereinafter referred to “PKR”), which has an antiviral action. […] It should be noted that β-actin in this diagram was used was a control.

The subject of assay [2] is influenza A virus, A/PR/8/34 (H1 N1) strain. As to the kind of experiment: Weight loss in mouse PR8 infection model. The assay is classed as in vivo, BALB/cN mice. The note with it: GGA treated groups (oral every 12 hours for 3 weeks before infection) except the 75G-PR8 group; control weight loss reaching 30%. On the procedure:
FIG. 1 indicates an improvement trend of clinical infection symptoms caused by administration of GGA in a mouse PR8 infection model according to the present invention. BALC/c mice that used in the present invention were randomly allotted into the following 4 groups: (1) Control group (n=30) is transnasally administered 2×10^5 PFU of A/PR/8/34; the GGA pre-treatment groups were orally administered GGA every 12 hours for 3 weeks in doses of: (2) 150 mg/kg (150G-PR8 group; n=30), (3) 75 mg/kg (75G-PR8 group; n=30), (4) 15 mg/kg (15G-PR8 group; n=30) and were infected with PR8 after 3 weeks in the same manner. The body weights of the mice were measured 1, 2, 3, 4, 7, and 10 days after infection;
(§1) The virus used in the present invention was the influenza A virus, A/PR/8/34 (H1 N1) strain (hereinafter referred to “PR8”); the mice were 6-week old female SPF (specific pathogen-free) BALB/cN mice (Charles River Japan Co., Ltd.); and the cells were A549 cells derived from human alveolar epithelial cell.
First, the aforementioned mice were raised in a cage for each 4 mice under clean conditions and allowed free access to sterilized feed and water. […]

The subject of assay [3] is viral nucleoprotein (NP) of PR8. Kind of assay: Viral nucleoprotein (NP) synthesis in the lungs of infected mice, Western blot and EIA. The format is in vivo, BALB/cN mice. The settings on record: GGA treated groups compared with control group.
From the text: as §1
(§2) The mice were randomly divided into the following 4 treatment groups, and tested: (1) Control group; intranasl infection with PR8 (2×10^5 PFU) (2) 150G-PR8; group; after administration of 150 mg/kg of GGA, infected with the same amount of PR8 in the same manner as the control group; (3) 75G-PR8 group; after administration of 75 mg/kg of GGA, infected with the same amount of PR8 in the same manner as the control group; (4) 15G-PR8 group; after administration of 15 mg/kg of GGA, infected with the same amount of PR8 in the same manner as the control group. The aforementioned group (1) refers to the control group, and groups (2) to (4) refer to the GGA treated group prior to infection. The GGA treated groups were orally administered GGA every 12 hours for 3 weeks.
FIG. 3 indicates the results of the effects of GGA on viral nucleoprotein (called “NP” hereinafter) synthesis in the lungs of the mice of the various groups after infection by an influenza virus according to the present invention. The amount of NP synthesis was measured with Western blot analysis. […]

The test system of assay [4] is HSP70. The assay is classed as in vivo, BALB/c mice.
Assay [5] relates to influenza A virus, A/PR/8/34 (H1 N1) strain. Kind of assay: Viral replication in the lungs of infected mice, plaque assay using MDCK. The format is in vivo, BALB/cN mice.
From the text: as §1, §2
FIG. 2 indicates the effects of GGA on viral replication in the lungs of the mice of the various groups after infection by an influenza virus according to the present invention. Here, the assay of virus in the lung was conducted by plaque assay using MDCK.

Assay [6] deals with HSP70. Kind of assay: HSP induction in A549 cells (northern blot, 35S-methionine pulse labeling, western blot). The format is cell-based, human. For orientation: Immunoblotting shows a protein as a band on a membrane.
Assay [7] concerns influenza A virus, A/PR/8/34 (H1 N1) strain. The format is cell-based. The settings on record: A549 cells.
Where [8] appears, read: GGA treatment (+), pulse labeling.

A value given as a limit tells only on which side of the number the result lay.

As to `CC(=O)CC/C=C(\C)CC/C=C(\C)CC/C=C(\C)CCC=C(C)C` [GGA, 6, 10, 14, 18-tetramethyl-5,9, 13, 17-nonadecatetraen-2-one], the “expression of M×A genes” value in the assay with M×A genes (A549 cells after infection with PR8, GAPDH control) is listed as “enhanced”. For the same compound, in the assay on M×A genes (A549 cells after infection with PR8, northern blot), the “expression of HSP mRNA after PR8 infection” value is on record as “enhanced”. Also, the “expression of PKR mRNA” value in assay [1] is recorded as “enhanced expression”. The “weight loss caused by PR8 infection” value in assay [2] was “almost no weight loss”. In addition, in assay [3], the “NP synthesis in the lungs, Western blot” value is “suppression of NP synthesis in a dose dependent manner” and the “capacity to synthesize NP after infection with PR8, EIA” value is “notably reduced”. For the same compound, the “amount of HSP70 mRNA expressed in the lungs after PR8 infection” value in the assay with HSP70 [4] ([…], GAPDH control) is listed as “dependent on the amount of GGA administered”. In the assay on HSP70 [4] (mouse, in vivo), the “expression of HSP70 in the lungs, GGA alone” value is “induced in a dose dependent manner”. The “time after infection at which virus was completely eliminated from the lungs” value in assay [5] (75G-PR8 group (75 mg/kg GGA)) is listed as 4 days. Further, in assay [5] (150G-PR8 group (150 mg/kg GGA)), the “time after infection at which virus was completely eliminated from the lungs” value is 3 days. Besides, the “growth of virus in the lungs” value in assay [5] (GGA 150, 75, 15 mg/kg oral every 12 hours for 3 weeks before PR8 infection, vs control) is recorded as “suppressed in a GGA dose-dependent manner”. In addition, the “time of peak HSP70 expression after administering GGA” value with HSP70 [6] (A549 cells, western blot with HSP70 antibodies) stood at 6 h. Further, the “expression of HSP70 mRNA in A549 cells” value in the assay on HSP70 [6] (northern blot, GAPDH control) was “induced in a concentration and time dependent manner”. In addition, in assay [7] (setting [8]), the “HSP70 synthesis in the early period of infection” value was “enhancement of HSP70 synthesis was observed” and the “time after infection at which NP synthesis began” value is greater than 12 h. The “NP synthesis capacity compared to GGA treatment (−)” value in assay [7] (PR8 infection, pulse labeling) was “suppressed”. Besides, the “capacity to synthesize viral proteins of PR8 (HA, NP, M1, NS1)” value in assay [7] (compared to the control) is listed as “notably suppressed”. In assay [7] (densitometric analysis at 3, 6, 12, 24 hours), the “duration of HSP70 expression after PR8 infection” value is “up to 12 hours”. The “time after infection up to which expression of NP was prevented” value in assay [7] (western blot) was “up to 12 hours”.
